Assay results from US12558351B2, “Compositions and methods for enhancing cancer immune checkpoint therapy” (DUKE UNIVERSITY, priority 2019, dated 2026).

Tests used:
B16F10 melanoma = test: Tumor growth delay and survival, B16F10 melanoma in C57BL/6 mice; format: in vivo, mouse
Method: (§1) All animal experiments conducted in this study were approved by Duke University Institutional Animal Use and Care Committee. C57BL/6J and Balb/C, mice were purchased from The Jackson Laboratory. NSG mice were purchased from Division of Laboratory Animal Resources (DLAR) of Duke University. Prior to tumor cell injection, age-matched 6-8 weeks old mice were shaved at one of the flanks. Tumor cells were then injected into shaved flanks subcutaneously with Lenti-CRISPRv2 modified control or target gene-specific knockout tumor cells. Tumor volumes were measured every 2-3 days and calculated by the formula: […]. The mice were sacrificed when tumors reached 2000 mm^3.
(§2) For antibody treatments, mice were given 100 μg antibody via intraperitoneal (i.p.) injection at day 6, 9, 12 post tumor cells injection using following antibodies: anti-PD1 (clone 29F.1A12) or isotype (clone 2A3) from BioXCell.

p-TBK [1] = test: Western blot of p-TBK in B16 cells; format: cell-based, mouse
Method: (§3) Cells lysates were boiled in sodium dodecyl sulfate (SDS) sample loading buffer, resolved by 10% SDS-polyacrylamide gel electrophoresis (SDS-PAGE) and transferred to nitrocellulose. The membranes were blocked in 5% milk in Tris-buffered saline and Tween 20 (TBST; 10 mM Tris-HCl [pH 8.0], 150 mM NaCl, 0.1% Tween 20) for 1 hr at room temperature. After washing twice with TBST, the membranes were incubated with appropriate primary antibodies in BSA/TBST for overnight and then washed three times with TBST, probed with horseradish […] anti-immunoglobulin (1:5000 dilution) for 1 hr at room temperature. After three washes with TBST, immunoreacted products were visualized using enhanced chemiluminescence reagent and autoradiography.

glioma = settings: preclinical models; Durant et al. Sci Adv 2018; cited from earlier work
[2] = test system: pro-inflammatory cytokine genes involved in cellular innate immunity; test: Q-RT-PCR of cytokine mRNA in wild type 4T1 cells treated with ATM inhibitors; format: cell-based, mouse; settings: FIG. 10
Method: (§4) Total RNA was extracted from cells by use of RNeasy Mini Kit (Qiagen) according to manufacturer's instructions. RNA was subjected to cDNA synthesis with random hexamer primers using Superscript II reverse transcriptase (Invitrogen). Quantitative real-time PCR was performed using Quanti Test SYBR Green PCR Master Mix Kit (Qiagen). Primers used for different target genes are listed in the Sequences section herein.

[3] = test system: mitochondrial DNA (mtDNA) release; test: Q-PCR of mtDNA in digitonin cytosolic extracts of B16F10 cells; format: cell-based, mouse; settings: 1 μM AZD1390 for 48 hours, FIGS. 59, 60
ATM kinase = ATM kinase (Homo sapiens, UniProt Q13315); settings: Durant et al. Sci Adv 2018; cited from earlier work
Chain of ATM kinase (Q13315 whole entry): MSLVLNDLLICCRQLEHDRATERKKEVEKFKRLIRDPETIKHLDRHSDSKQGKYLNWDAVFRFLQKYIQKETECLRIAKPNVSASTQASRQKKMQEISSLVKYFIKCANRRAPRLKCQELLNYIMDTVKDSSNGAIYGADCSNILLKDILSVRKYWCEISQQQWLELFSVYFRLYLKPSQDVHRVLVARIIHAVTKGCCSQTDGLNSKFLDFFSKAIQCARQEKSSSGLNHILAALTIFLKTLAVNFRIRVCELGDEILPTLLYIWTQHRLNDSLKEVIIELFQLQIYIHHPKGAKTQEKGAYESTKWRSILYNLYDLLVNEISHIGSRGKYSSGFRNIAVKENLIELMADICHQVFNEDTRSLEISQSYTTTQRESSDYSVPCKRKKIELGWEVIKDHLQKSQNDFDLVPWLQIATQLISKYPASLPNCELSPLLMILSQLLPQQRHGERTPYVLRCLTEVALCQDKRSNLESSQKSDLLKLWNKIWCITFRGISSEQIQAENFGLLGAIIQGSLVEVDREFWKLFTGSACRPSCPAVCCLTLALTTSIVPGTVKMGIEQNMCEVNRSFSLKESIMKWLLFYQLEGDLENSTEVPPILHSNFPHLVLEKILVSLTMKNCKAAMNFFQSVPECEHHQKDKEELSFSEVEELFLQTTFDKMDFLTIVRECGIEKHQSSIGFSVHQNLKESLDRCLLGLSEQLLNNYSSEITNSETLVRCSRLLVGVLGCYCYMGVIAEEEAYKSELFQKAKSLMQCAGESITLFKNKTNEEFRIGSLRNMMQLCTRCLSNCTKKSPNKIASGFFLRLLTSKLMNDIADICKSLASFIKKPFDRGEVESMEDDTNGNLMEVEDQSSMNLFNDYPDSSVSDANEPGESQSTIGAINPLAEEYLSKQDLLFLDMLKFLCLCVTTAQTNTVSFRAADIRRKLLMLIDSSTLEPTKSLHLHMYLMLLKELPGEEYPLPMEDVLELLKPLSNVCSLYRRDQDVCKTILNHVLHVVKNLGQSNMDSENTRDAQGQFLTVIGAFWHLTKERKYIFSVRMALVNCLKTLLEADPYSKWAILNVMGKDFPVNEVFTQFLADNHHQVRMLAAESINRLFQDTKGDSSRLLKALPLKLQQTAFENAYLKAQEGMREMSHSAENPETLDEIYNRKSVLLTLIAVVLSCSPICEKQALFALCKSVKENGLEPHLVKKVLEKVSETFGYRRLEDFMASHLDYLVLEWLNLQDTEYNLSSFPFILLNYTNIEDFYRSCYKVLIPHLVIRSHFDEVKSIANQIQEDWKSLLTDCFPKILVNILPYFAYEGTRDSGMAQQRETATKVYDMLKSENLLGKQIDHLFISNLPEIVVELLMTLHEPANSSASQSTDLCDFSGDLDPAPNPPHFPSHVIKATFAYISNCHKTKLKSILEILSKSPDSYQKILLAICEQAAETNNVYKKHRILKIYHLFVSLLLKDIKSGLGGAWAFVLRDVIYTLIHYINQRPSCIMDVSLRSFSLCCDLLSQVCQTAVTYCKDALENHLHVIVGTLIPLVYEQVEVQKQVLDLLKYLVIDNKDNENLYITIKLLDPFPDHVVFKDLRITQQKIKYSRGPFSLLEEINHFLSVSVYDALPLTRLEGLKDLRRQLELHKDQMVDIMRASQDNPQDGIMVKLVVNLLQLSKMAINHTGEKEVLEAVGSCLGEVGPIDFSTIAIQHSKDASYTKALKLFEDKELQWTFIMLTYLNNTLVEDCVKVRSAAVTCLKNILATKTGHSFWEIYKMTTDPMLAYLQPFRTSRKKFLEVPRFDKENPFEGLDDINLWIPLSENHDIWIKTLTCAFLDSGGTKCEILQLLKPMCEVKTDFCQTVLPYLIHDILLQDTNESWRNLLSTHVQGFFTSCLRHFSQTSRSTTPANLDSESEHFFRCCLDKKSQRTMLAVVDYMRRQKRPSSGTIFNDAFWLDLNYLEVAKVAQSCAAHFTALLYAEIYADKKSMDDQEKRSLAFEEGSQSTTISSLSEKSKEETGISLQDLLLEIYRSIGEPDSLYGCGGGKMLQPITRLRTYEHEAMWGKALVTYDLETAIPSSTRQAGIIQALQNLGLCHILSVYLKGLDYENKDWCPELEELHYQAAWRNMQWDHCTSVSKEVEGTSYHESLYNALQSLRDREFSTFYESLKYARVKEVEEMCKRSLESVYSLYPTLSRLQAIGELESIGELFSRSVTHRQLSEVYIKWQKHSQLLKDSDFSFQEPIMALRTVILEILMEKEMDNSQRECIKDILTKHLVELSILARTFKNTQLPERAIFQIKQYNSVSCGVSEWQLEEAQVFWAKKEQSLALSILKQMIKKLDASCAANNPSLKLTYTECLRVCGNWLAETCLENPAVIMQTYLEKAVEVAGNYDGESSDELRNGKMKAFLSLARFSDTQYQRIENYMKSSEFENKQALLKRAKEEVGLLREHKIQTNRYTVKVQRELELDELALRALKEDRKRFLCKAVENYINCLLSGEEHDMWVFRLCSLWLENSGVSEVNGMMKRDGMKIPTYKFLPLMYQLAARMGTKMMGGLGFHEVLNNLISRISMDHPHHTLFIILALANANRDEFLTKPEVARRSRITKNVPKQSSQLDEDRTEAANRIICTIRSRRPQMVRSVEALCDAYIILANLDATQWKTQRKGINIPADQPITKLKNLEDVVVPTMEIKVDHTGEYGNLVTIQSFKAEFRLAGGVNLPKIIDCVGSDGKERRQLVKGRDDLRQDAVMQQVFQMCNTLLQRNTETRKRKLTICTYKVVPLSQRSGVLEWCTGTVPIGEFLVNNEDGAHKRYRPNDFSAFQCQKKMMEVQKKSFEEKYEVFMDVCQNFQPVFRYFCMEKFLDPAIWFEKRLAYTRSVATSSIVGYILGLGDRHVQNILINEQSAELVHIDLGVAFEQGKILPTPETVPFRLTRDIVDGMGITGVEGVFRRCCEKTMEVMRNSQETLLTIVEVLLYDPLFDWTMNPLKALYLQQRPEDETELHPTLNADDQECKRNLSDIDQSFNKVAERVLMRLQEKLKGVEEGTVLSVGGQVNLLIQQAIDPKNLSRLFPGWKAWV

ISGs = test: qRT-PCR of ISGs in B16F10 cells; format: cell-based, mouse
Method: as §4

4T1 tumor = test: Tumor growth delay and survival, 4T1 tumors in Balb/c mice; format: in vivo; settings: 4T1, Balb/c; anti-PD1 100 μg/mouse days 6, 9, 12 or AZD1390 10 mg/kg daily days 4-14; FIGS. 27, 28
Method: as §1, §2

cGAS-STING = test: Ethidium bromide mtDNA depletion, cGAS-STING activation in B16F10 cells; format: cell-based, mouse; settings: wild-type B16F10, 100 ng/ml ethidium bromide 20 days, then 1 μM AZD1390 48 hr; FIG. 103
Method: as §3
A previously published protocol was used (White, M. J. et al. Cell (2014) doi:10.1016/j.cell1.2014.11.036). Vector control, ATM KO and wild-type B16 cells were cultured in Dulbecco's modified Eagle's medium (DMEM) with 10% FBS. About 100 ng/ml ethidium bromide was added to the medium for 20 days before the cells were harvested for experiments.
Total RNA was extracted from cells by use of RNeasy Mini Kit (Qiagen) according to manufacturer's instructions. […] Quantitative real-time PCR was performed using Quanti Test SYBR Green PCR Master Mix Kit (Qiagen). […]

p-TBK [4] = test: Western blot of p-TBK in MDA-MB-231 cells; format: cell-based; settings: human MDA-MB-231 cells, Ku55933 for 6 hours; FIG. 91
Method: as §3

SMILES	enhancement of anti-tumor efficacy of the anti-PD1 antibody (B16F10 melanoma; B16F10, C57BL/6, AZD1390 10 mg/kg daily days 4-14 plus anti-PD1 100 μg/mouse days 6, 9, 12, FIGS. 25, 26)	enhancement of tumor suppression mediated by an anti-PD1 antibody (B16F10 melanoma; B16F10 melanoma, anti-PD1 100 μg/mouse and AZD1390 2.5 mg/Kg, FIG. 11)	effect on tumor growth, single agent (B16F10 melanoma; B16F10 tumors, C57BL/6, AZD1390 alone 10 mg/kg daily days 4-14, FIG. 25)	phosphorylation of TBK (p-TBK [1]; AZD1390 at indicated concentrations for 48 hrs, FIG. 45)	enhancement of radiotherapy of glioma (glioma)	pro-inflammatory cytokine gene expression [2]	mitochondrial DNA (mtDNA) release [3]	ATM kinase inhibitor character (ATM kinase)	expression of ISGs (ISGs; 1 μM AZD1390 for 48 hrs, FIG. 46)	effect on tumor growth, single agent (4T1 tumor)	cGAS-STING activation (pTBK) induced by AZD1390 after EtBr-induced depletion of mtDNA (cGAS-STING)	phosphorylation of TBK (p-TBK [1]; Ku55933 indicated concentrations 6 hours, or 5 μM at indicated times, FIGS. 88, 89)	expression of p-TBK (p-TBK [4])	expression of ISGs (ISGs; 10 μM Ku55933 for 9 hours (IFIT1, CCL5), FIG. 90)
CC(C)n1c(=O)n(C)c2cnc3cc(F)c(-c4ccc(OCCCN5CCCCC5)nc4)cc3c21 [AZD1390]	significantly enhanced	significantly enhanced tumor suppression	almost negligible effect	induced increased phosphorylation of TBK	significantly enhanced radiotherapy of glioma	induce the pro-inflammatory cytokine genes	induced mitochondrial DNA (mtDNA) release	potent and selective	induced expression of ISGs	more significant tumor-suppressive effect	abrogated			
O=c1cc(-c2cccc3c2Sc2ccccc2S3)oc(N2CCOCC2)c1 [Ku55933]						induce the pro-inflammatory cytokine genes						induced increased phosphorylation of TBK	induced expression of p-TBK	induced expression of ISGs
